Results published in patent publication US11464745B2, “Solid pharmaceutical dosage formulations and processes” (UCL Business PLC, priority 2016, dated 2022).

Tests used:
[1] = Determination of drug loading by HPLC (drug degradation during SLS printing); format: physicochemical; settings: SLS 3D printing, 445 nm 2.3 W laser
Description: Tablets weighing approx. 300 mg, prepared as in example 1, were placed in a volumetric flask with deionized water (1 L) under magnetic stirring until complete dissolution.
Samples of the solutions were then filtered through 0.45 μm filters (Millipore Ltd, Ireland) and the concentration of drug determined with high performance liquid chromatograph (HPLC). We used a Hewlett Packard 1050 Series HPLC system, Agilent Technologies, UK. The validated high performance liquid chromatographic assay entailed injecting 20 μL samples for analysis using a mobile phase, consisting of gradient system of (A) water adjusted to pH 2 with orthophosphoric acid and (B) acetonitrile, through a Luna 5 μm C18 column, 150×4.6 mm (Phenomenex, UK) maintained at 40° C. The mobile phase was pumped at a flow rate of 1 mL/min under the following gradient program: 0-15 min, 5-20% B; 15-16 min, 20-5% B.
HPLC drug loading studies have been performed. […] (Goyanes et al. 3D printing of modified-release aminosalicylate (4-ASA and 5-ASA) tablets. Eur. J. Pharm. Biopharm. 89, 157-162).

[2] = FDM printing; cited from earlier work

- drug degradation during the printing process (HPLC) [1]: No degradation
SMILES: Nc1ccc(C(=O)O)c(O)c1 [4-ASA]
- drug degradation while printing [2]: degrade
